The values that follow come from patent publication US20200291018A1, “TAM KINASE INHIBITORS” (SYROS PHARMACEUTICALS, INC., priority 2017, published 2020).

pIC50: −log10 of the molar value.

One assay has as its target T1, TYRO3 (Homo sapiens, UniProt Q06418).
T1 sequence (Q06418 41-890): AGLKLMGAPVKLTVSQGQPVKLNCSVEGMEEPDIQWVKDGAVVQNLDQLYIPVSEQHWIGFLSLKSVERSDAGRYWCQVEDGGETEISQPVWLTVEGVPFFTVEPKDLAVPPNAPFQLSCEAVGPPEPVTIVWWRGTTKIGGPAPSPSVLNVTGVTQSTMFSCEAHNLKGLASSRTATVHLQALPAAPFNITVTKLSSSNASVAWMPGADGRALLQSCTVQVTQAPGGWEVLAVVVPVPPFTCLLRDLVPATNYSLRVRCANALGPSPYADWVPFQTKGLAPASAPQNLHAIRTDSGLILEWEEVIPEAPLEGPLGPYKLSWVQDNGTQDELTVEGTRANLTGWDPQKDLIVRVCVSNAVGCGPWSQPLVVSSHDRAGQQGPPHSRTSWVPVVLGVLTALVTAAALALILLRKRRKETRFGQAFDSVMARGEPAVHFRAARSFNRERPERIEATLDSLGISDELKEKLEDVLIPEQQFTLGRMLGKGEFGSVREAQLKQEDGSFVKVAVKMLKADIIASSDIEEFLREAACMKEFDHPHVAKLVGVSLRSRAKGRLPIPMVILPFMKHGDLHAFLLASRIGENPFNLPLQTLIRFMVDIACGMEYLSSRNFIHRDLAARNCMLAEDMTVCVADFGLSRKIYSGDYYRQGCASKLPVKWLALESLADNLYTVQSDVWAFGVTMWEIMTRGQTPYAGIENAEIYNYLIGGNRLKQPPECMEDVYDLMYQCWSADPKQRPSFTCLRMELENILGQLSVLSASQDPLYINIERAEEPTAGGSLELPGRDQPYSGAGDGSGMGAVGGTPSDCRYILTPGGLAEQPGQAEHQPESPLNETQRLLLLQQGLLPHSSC
Briefly: TR-FRET kinase activity assay, TYRO3. It counts as biochemical. Particulars: ATP at Km, 60 minutes. Summed up: (§1)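 IC50s come from loss of TR-FRET between a Eu-labeled phospho-site antibody and fluorescent tyrosine-phosphorylated peptide. Kinase reactions, initiated with Km ATP, ran 60 min at RT at pH 7.5 before EDTA quench.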
(In general: Time-resolved FRET reads energy transfer from a long-lived donor to a nearby acceptor.)

The target in another assay is T2, AXL (Homo sapiens, UniProt P30530).
T2 sequence (P30530 26-894): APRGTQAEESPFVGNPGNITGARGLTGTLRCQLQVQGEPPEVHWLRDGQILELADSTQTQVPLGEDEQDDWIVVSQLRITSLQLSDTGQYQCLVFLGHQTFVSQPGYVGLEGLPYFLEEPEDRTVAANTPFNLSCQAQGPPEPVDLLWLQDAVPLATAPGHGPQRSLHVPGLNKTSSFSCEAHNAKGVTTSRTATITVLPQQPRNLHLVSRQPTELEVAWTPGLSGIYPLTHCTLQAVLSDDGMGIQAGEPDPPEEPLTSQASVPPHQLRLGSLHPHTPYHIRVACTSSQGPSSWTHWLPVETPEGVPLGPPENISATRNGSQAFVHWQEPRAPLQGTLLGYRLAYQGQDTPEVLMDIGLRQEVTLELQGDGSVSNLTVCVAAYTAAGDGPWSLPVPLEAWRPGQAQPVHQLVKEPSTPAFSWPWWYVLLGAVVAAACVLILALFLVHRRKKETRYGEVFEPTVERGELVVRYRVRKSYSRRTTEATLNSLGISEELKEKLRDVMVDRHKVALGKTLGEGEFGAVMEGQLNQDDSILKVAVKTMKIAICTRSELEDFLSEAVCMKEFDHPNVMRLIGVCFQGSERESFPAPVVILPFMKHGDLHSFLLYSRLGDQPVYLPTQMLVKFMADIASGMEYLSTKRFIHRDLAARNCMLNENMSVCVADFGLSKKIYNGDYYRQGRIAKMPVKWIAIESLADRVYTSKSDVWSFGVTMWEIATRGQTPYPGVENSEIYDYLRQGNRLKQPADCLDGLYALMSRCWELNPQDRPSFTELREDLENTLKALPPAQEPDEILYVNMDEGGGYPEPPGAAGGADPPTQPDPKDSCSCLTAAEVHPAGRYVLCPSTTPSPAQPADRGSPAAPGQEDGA
Put plainly: TR-FRET kinase activity assay, AXL. The assay is classed as biochemical. Particulars: ATP at Km, 60 minutes. The procedure, abridged:
as §1

For orientation: pIC50 means the negative decadic logarithm of the IC50, by convention in mol/L. Lower therefore signals a high IC50. Turning to `CCCC(C)Nc1ncc2c(=O)n(C3CCNCC3)cc([C@H]3CC[C@H](O)CC3)c2n1` (some centres unmarked) [Compound 112], the pIC50 was at least 7.00 against TYRO3 and 6.00 to 7.00 against AXL.
On to `CCCCNc1cc2c(cn1)c(=O)n(C1CCN(C)CC1)cc2[C@H]1CC[C@H](O)CC1` [Compound 116], for which the pIC50 on TYRO3 was at least 7.00; against AXL, 6.00 to 7.00.
The matching figures for `CCCC(C)Nc1ncc2c(=O)n(C3CCN(C)CC3)cc([C@H]3CC[C@H](O)CC3)c2n1` (some centres unmarked) [Compound 117]: at least 7.00 and 6.00 to 7.00.
As for `CC(C)CC(C)Nc1ncc2c(=O)n(C3CCNCC3)cc([C@H]3CC[C@H](O)CC3)c2n1` (some centres unmarked) [Compound 119], the pIC50 at TYRO3 is at least 7.00; on AXL, 6.00 to 7.00.
In the case of `CS(=O)(=O)N1CC[C@H](Nc2ncc3c(OC4CCOCC4)ncc([C@H]4CC[C@H](O)CC4)c3n2)C1` [Compound 278], the negative-log IC50 (pIC50) against TYRO3 is 6.00 to 7.00; against AXL, 5.00 to 6.00.
With `COC[C@H](C)Nc1ncc2c(OC3CCOCC3)ncc(-c3ccc(N4CCN(C)CC4)cc3)c2n1` [Compound 279], the pIC50 against TYRO3 is 6.00 to 7.00; at AXL, 5.00 to 6.00.
In the case of `COC[C@H](C)Nc1ncc2c(OC3CCOCC3)ncc(-c3ccc(C4CCN(C)CC4)cc3)c2n1` [Compound 280], the figures for the pIC50 against TYRO3 and against AXL were at least 7.00 and 6.00 to 7.00, respectively.
For the compound `CCOC[C@H](C)Nc1ncc2c(OC3CCOCC3)ncc([C@H]3CC[C@H](O)CC3)c2n1` [Compound 281], the pIC50 was 6.00 to 7.00 against TYRO3 and 5.00 to 6.00 at AXL.
For the compound `CN1CC(Nc2ncc3c(OC4CCOCC4)ncc([C@H]4CC[C@H](O)CC4)c3n2)CC1=O` (some centres unmarked) [Compound 282], the pIC50 at TYRO3 is 6.00 to 7.00; at AXL, 5.00 to 6.00.
For the compound `O=C(O)c1ccc(Nc2ncc3c(OC4CCNCC4)ncc([C@H]4CC[C@H](O)CC4)c3n2)cc1` [Compound 283], the pIC50 against TYRO3 and on AXL was at least 7.00 in each case.
`C[C@@H](CCO)Nc1ncc2c(OC3CCOCC3)ncc([C@H]3CC[C@H](O)CC3)c2n1` [Compound 284]: the pIC50 against TYRO3 is 6.00 to 7.00; against AXL, 5.00 to 6.00.
As for `COC[C@H](C)Nc1cc2c(cn1)c(OC1CCOCC1)ncc2[C@H]1CC[C@H](O)CC1` [Compound 285], the results for the pIC50 on TYRO3 and on AXL were 6.00 to 7.00 and 5.00 to 6.00, respectively.
As to `O[C@H]1CC[C@H](c2cnc(OC3CCOCC3)c3cnc(NCCC(F)(F)F)nc32)CC1` [Compound 286], the pIC50 on TYRO3 and on AXL was 6.00 to 7.00 throughout.
Consider `CC[C@H](C)Nc1ncc2c(O[C@H]3CC[C@](C)(O)CC3)ncc([C@H]3CC[C@H](O)CC3)c2n1` [Compound 287], for which the pIC50 against TYRO3 and on AXL was 6.00 to 7.00 throughout.
Take `CC(C)Nc1ncc2c(OC3CCOCC3)ncc(-c3cccc(S(=O)(=O)N(C)C)c3)c2n1` [Compound 288]: the results for the pIC50 against TYRO3 and at AXL were at least 7.00 and 6.00 to 7.00, respectively.
The corresponding values for `COC[C@H](C)Nc1ncc2c(OC3CCN(S(C)(=O)=O)CC3)ncc([C@H]3CC[C@H](O)CC3)c2n1` [Compound 289] are 6.00 to 7.00 and 6.00 to 7.00.
As for `CC[C@H](C)Nc1ncc2c(=O)n([C@H]3CC[C@H](N)CC3)cc([C@H]3CC[C@H](O)CC3)c2n1` [Compound 290], the results for the pIC50 against TYRO3 and against AXL were at least 7.00 and 6.00 to 7.00, respectively.
As for `CC1(Nc2ncc3c(OC4CCNCC4)ncc([C@H]4CC[C@H](O)CC4)c3n2)CC1` [Compound 291], the pIC50 is at least 7.00 against TYRO3 and 6.00 to 7.00 against AXL.
Consider `C[C@@H](CC#N)Nc1ncc2c(OC3CCOCC3)ncc([C@H]3CC[C@H](O)CC3)c2n1` [Compound 292], for which the pIC50 on TYRO3 and at AXL was 6.00 to 7.00 throughout.
Regarding `COC[C@H](C)Nc1ncc2c(OC3CCOCC3)ncc([C@H]3CC[C@](C)(O)CC3)c2n1` [Compound 293], the figures for the pIC50 against TYRO3 and against AXL were at least 7.00 and 6.00 to 7.00, respectively.
Take `COC[C@H](C)Nc1ncc2c(OC3CCOCC3)ncc([C@H]3CC[C@@](C)(O)CC3)c2n1` [Compound 294]: the pIC50 was 6.00 to 7.00 at TYRO3 and 5.00 to 6.00 on AXL.
Regarding `COC[C@H](C)Nc1ncc2c(O[C@H]3C[C@H](O)C3)ncc([C@H]3CC[C@H](O)CC3)c2n1` [Compound 295], the pIC50 against TYRO3 was at least 7.00; on AXL, 6.00 to 7.00.
Regarding `COC[C@H](C)Nc1ncc2c(O[C@H]3C[C@@H](O)C3)ncc([C@H]3CC[C@H](O)CC3)c2n1` [Compound 296], the pIC50 on TYRO3 is at least 7.00; against AXL it was 6.00 to 7.00.
Take `CNC(=O)Nc1ccc(-c2cnc(OC3CCOCC3)c3cnc(N[C@@H](C)COC)nc23)cc1` [Compound 297]: the values for the pIC50 against TYRO3 and against AXL were 6.00 to 7.00 and 5.00 to 6.00, respectively.
For the compound `CC[C@H](C)Nc1ncc2c(O[C@H]3CC[C@@H](N(C)C)C3)ncc([C@H]3CC[C@H](O)CC3)c2n1` [Compound 298], the pIC50 on TYRO3 was at least 7.00; at AXL it was 6.00 to 7.00.
For `O[C@H]1CC[C@H](c2cnc(OC3CCNCC3)c3cnc(Nc4ccc(Cl)c(Cl)c4)nc32)CC1` [Compound 299], the pIC50 against TYRO3 and against AXL was at least 7.00 each time.
For the compound `CCc1cc(Nc2ncc3c(OC4CCNCC4)ncc([C@H]4CC[C@H](O)CC4)c3n2)ccc1Cl` [Compound 300], the negative logarithm of the IC50 (pIC50) on TYRO3 and on AXL was at least 7.00 throughout.
With `COC[C@H](C)Nc1ncc2c(OC3CCOCC3)ncc(-c3ccc(O)cc3)c2n1` [Compound 301], the pIC50 against TYRO3 is 6.00 to 7.00; against AXL it was 5.00 to 6.00.
Regarding `COC[C@H](C)Nc1ncc2c(O[C@H]3CCNCC3(F)F)ncc([C@H]3CC[C@H](O)CC3)c2n1` [Compound 302], the pIC50 against TYRO3 is 6.00 to 7.00; against AXL, 5.00 to 6.00.
As for `COC[C@H](C)Nc1ncc2c(C)ncc([C@H]3CC[C@H](O)CC3)c2n1` [Compound 303], the pIC50 was at least 7.00 against TYRO3 and 6.00 to 7.00 against AXL.
In the case of `C[C@@H](CF)Nc1ncc2c(OC3CCOCC3)ncc([C@H]3CC[C@H](O)CC3)c2n1` [Compound 304], the pIC50 at TYRO3 and against AXL was 6.00 to 7.00 throughout.
In the case of `C[C@@H](CC(F)(F)F)Nc1ncc2c(OC3CCOCC3)ncc([C@H]3CC[C@H](O)CC3)c2n1` [Compound 305], the pIC50 against TYRO3 is at least 7.00; against AXL, 6.00 to 7.00.
Turning to `CC[C@H](C)Nc1ncc2c(OC3CCN(c4ncccn4)CC3)ncc([C@H]3CC[C@H](O)CC3)c2n1` [Compound 306], the pIC50 at TYRO3 and at AXL was 6.00 to 7.00 each time.
As to `COC[C@H](C)Nc1ncc2c(OC3CCOCC3)ncc(-c3cccc(S(=O)(=O)N(C)C)c3)c2n1` [Compound 307, (S)-3-(2-((1-methoxypropan-2-yl)amino)-5-((tetrahydro-2H-pyran-4-yl)oxy)pyrido[4,3-d]pyrimidin-8-yl)-N,N-dimethylbenzenesulfonamide], the pIC50 was 6.00 to 7.00 on TYRO3 and 5.00 to 6.00 against AXL.
In the case of `COC[C@H](C)Nc1ncc2c(O[C@@H]3CCNCC3(F)F)ncc([C@H]3CC[C@H](O)CC3)c2n1` [Compound 308], the pIC50 on TYRO3 is 6.00 to 7.00; against AXL it was 5.00 to 6.00.
With `COC[C@H](C)Nc1ncc2c(OC3CCOCC3)ncc(-c3ccc(N)cc3)c2n1` [Compound 309], the pIC50 on TYRO3 is 6.00 to 7.00; against AXL, 5.00 to 6.00.
For the compound `COCCN1C(C)(C)CC(Oc2ncc([C@H]3CC[C@H](O)CC3)c3nc(N[C@@H](C)COC)ncc23)CC1(C)C` [Compound 310], the pIC50 against TYRO3 and on AXL was at least 7.00 in each case.
